# Where no end group is shown, it is not given here.
# Experiments:
# P. aeruginosa P005 = assay type: cell-based; conditions: MDR strain P005 isolated from cystic fibrosis patients
# P. aeruginosa P001 = assay type: cell-based; conditions: MDR strain P001 isolated from cystic fibrosis patients
# P. aeruginosa TRPA111 = assay type: cell-based; conditions: MDR strain TRPA111 isolated from cystic fibrosis patients
# P. aeruginosa TRPA108 = assay type: cell-based; conditions: MDR strain TRPA108 isolated from cystic fibrosis patients
# P. aeruginosa P002 = assay type: cell-based; conditions: MDR strain P002 isolated from cystic fibrosis patients
# mouse lungs = test: Pulmonary toxicity in uninfected mice; assay type: in vivo, C57BL/6J mice; conditions: for pulmonary toxicity: 0.35 mg/kg i.t., total inflammatory cells, differential cell counts, inflammation-associated genes; for effect on cell differential and inflammatory mediators in the lungs: uninfected mice, 7µg i.t. (7 times the minimum effective dose), 24h
# P. aeruginosa TRPA321 = assay type: cell-based; conditions: MDR strain TRPA321 isolated from cystic fibrosis patients
# [1] = system: differentiated primary HBE cells; test: Transepithelial Electrical Resistance; assay type: cell-based, human; conditions: apical, 24 hours after administration
# P. aeruginosa P004 = assay type: cell-based; conditions: MDR strain P004 isolated from cystic fibrosis patients
# P. aeruginosa P003 = assay type: cell-based; conditions: MDR strain P003 isolated from cystic fibrosis patients
# HBE cells = test: Toxicity to HBE cells; assay type: cell-based, human; conditions: 16µM
# P. aeruginosa PAO1 = assay type: cell-based; conditions: control strain PAO1 susceptible to antibiotics and AMPs
Compound,MIC (P. aeruginosa P005),MIC (P. aeruginosa P001),MIC (P. aeruginosa TRPA111),MIC (P. aeruginosa TRPA108),MIC (P. aeruginosa P002),pulmonary toxicity (mouse lungs),effect on cell differential and inflammatory mediators in the lungs (mouse lungs),MIC (P. aeruginosa TRPA321),final reduction in TEER / recovery ([1]; 32µM peptide in PBS),final reduction in TEER / recovery ([1]; 64µM peptide in PBS),MIC (P. aeruginosa P004),MIC (P. aeruginosa P003),toxicity to HBE cells (HBE cells),MIC (P. aeruginosa PAO1)
"CC[C@H](C)[C@H](NC(=O)[C@H](CCCCN)NC(=O)[C@H](CCC(=O)O)NC(=O)[C@H](CCCCN)NC(=O)[C@H](CO)NC(=O)[C@H](CCCCN)NC(=O)[C@H](CCCNC(=N)N)NC(=O)[C@H](Cc1ccccc1)NC(=O)[C@H](Cc1ccccc1)NC(=O)[C@H](CC(=O)O)NC(=O)CNC(=O)[C@H](CC(C)C)NC(=O)[C@@H](N)CC(C)C)C(=O)NCC(=O)N[C@@H](CCCCN)C(=O)N[C@@H](CCC(=O)O)C(=O)N[C@@H](Cc1ccccc1)C(=O)N[C@@H](CCCCN)C(=O)N[C@@H](CCCNC(=N)N)C(=O)N[C@H](C(=O)N[C@H](C(=O)N[C@@H](CCC(N)=O)C(=O)N[C@@H](CCCNC(=N)N)C(=O)N[C@H](C(=O)N[C@@H](CCCCN)C(=O)N[C@@H](CC(=O)O)C(=O)N[C@@H](Cc1ccccc1)C(=O)N[C@@H](CC(C)C)C(=O)N[C@@H](CCCNC(=N)N)C(=O)N[C@@H](CC(N)=O)C(=O)N[C@@H](CC(C)C)C(=O)N[C@H](C(=O)N1CCC[C@H]1C(=O)N[C@@H](CCCNC(=N)N)C(=O)N[C@H](C(=O)N[C@@H](CCC(=O)O)C(=O)N[C@@H](CO)C(=O)O)[C@@H](C)O)C(C)C)[C@@H](C)CC)C(C)C)[C@@H](C)CC [LL37, reference compound]",8 µM,32 µM,2 µM,2 µM,32 µM,does not cause pulmonary toxicity,no effect,32 µM,1/2,2/3,8 µM,32 µM,,
RRWVRRVRRVWRRVVRVVRRWVRR [WLBU2],2 µM,6 µM,1 µM,1 µM,4 µM,does not cause pulmonary toxicity,no effect,2 µM,completely recovered,completely recovered,2 µM,6 µM,not toxic,2 µM

# Source: PMC5835169 (Clinical microbiology and infection : the official …, 2017)
